Read-outs that look alike come from different tables or passages of the source.
Legend:
[1] = Compatibility of clofazimine and excipients (60° C., 3 days, HPLC); assay type: physicochemical; settings: for Degradation total impurities: 60° C. for 3 days
Protocol: Clofazimine was dissolved into different excipients with different mass ratios, then the mixture was placed in the condition of 60° C. for 3 days. The total degradation impurities were measured by HPLC and summarized below in Table 25. The excipients were classified by the results as below.

[2] = cited from earlier work; for time to reach peak plasma concentration (Tmax): oral administration
[3] = blood concentration after topical application in minipigs; assay type: in vivo, Bama minipigs
Protocol: Studies were performed to evaluate the blood concentration-time curve after topical application of Formulations 10-12 (clofazimine 0.01%, 0.03% and 0.1%) in Bama minipigs. 24 Bama minipigs (12 male and 12 female) were randomly divided into 4 groups (n=6), three groups received a single topical application of Formulations 10-12 (clofazimine 0.01%, 0.03% and 0.1%). […] In above 4 groups, Formulations 10-12 were applicated to 5% body surface area of Bama minipigs, that is, 1.5 mg ointment/cm^2 (corresponding to 0.15, 0.45, 1.5 μg API/cm^2 respectively). […] A validated LC-MS/MS method was used to determine the concentration of clofazimine in plasma and the pharmacokinetic parameters were calculated (the standard curve range of clofazimine is 0.0100˜10.0 ng/mL).

In the case of `CC(C)/N=c1\cc2n(-c3ccc(Cl)cc3)c3ccccc3nc-2cc1Nc1ccc(Cl)cc1` [Clofazimine, N,5-bis(4-chlorophenyl)-3-propan-2-ylimino phenazin-2-amine], the “chemical stability (hydrolysis, oxidation)” value [1] is reported as “easily hydrolyzed and oxidized”, the Degradation total impurities ([1]; Campmul MCM (1:100)) is reported as greater than 1% and the Degradation total impurities ([1]; Campmul MCM + water (1:100:800)) is reported as greater than 1%. For the same compound, the Degradation total impurities ([1]; Gelucire 44/14 (1:100)) was greater than 1%, the Degradation total impurities ([1]; Oleic acid (1:50)) was 0.5-1% and the Degradation total impurities ([1]; Oleic acid + labrasol (1:50:100)) was greater than 1%. The Degradation total impurities ([1]; PEG 400 (1:400)) was greater than 1%, the Degradation total impurities ([1]; PEG 3350 (1:400)) was 0-0.5% and the Degradation total impurities ([1]; RH 40 (1:100)) was 0-0.5%. For the same compound, the Degradation total impurities ([1]; Stearyl alcohol (1:70)) was 0-0.5%, the Degradation total impurities ([1]; Tefose 63 (1:100)) was greater than 1% and the Degradation total impurities ([1]; Vaseline (1:3000)) was 0-0.5%. For the same compound, the Degradation total impurities ([1]; glycerin (1:2500)) was 0-0.5%, the Degradation total impurities ([1]; labrasol (1:100)) was 0.5-1% and the Degradation total impurities ([1]; labrasol + carbomer (1:100:5)) was 0.5-1%. The Degradation total impurities ([1]; labrasol + water (1:100:800)) was 0.5-1%, the Degradation total impurities ([1]; liquid paraffin (1:1000)) was 0-0.5% and the Degradation total impurities ([1]; oleic acid + labrasol + water (1:50:100:800)) was greater than 1%. For the same compound, the Degradation total impurities ([1]; propyl glycol (1:2500)) was 0-0.5%, the Degradation total impurities ([1]; transcutol + tween 80 (1:100:100)) was greater than 1% and the Degradation total impurities ([1]; transcutol + water (1:100:800)) was 0.5-1%. It also gave a Degradation total impurities ([1]; trascutol (1:100)) greater than 1%, a Degradation total impurities ([1]; tween 80 (1:100)) greater than 1% and a Degradation total impurities ([1]; tween 80 + water (1:100:800)) greater than 1%. The “chemical stability of clofazimine in lipid excipients” value ([1]; lipid excipients such as PEG 3350, stearyl alcohol, vaseline, and liquid paraffin) was “enhanced chemical stability”, the “time to reach peak plasma concentration (Tmax)” value ([2]; fasted state) was 12 h and the “time to reach peak plasma concentration (Tmax)” value ([2]; fed conditions) was 8 h. The absorption rate ([2]; oral, FDA Label information) was 45-62%, the clofazimine in plasma ([3]; repeated dose (0.03%, bid, 9 applications)) was “a very low level of clofazimine could be detected in plasma” and the clofazimine in plasma ([3]; single dose groups, majority of the samples) was “no clofazimine was detectable”. For the same compound, the clofazimine in plasma ([3]; single dose groups, minority of samples in the 0.01% and 0.1% groups, 1.5 mg ointment/cm^2, 5% body surface area) was “very low level of clofazimine (close to the detection limit of the instrument)” and the “gender difference in clofazimine absorption” value ([3]; topical, male and female) was “No significant gender difference”.
